The assay deals with BDF1 mice, B16 melanoma ip, median survival T/C. Nature of the assay: NCI In Vivo Anticancer Drug Screen. Data for tumor model B16 Melanoma (intraperitoneal) in B6D2F1 (BDF1) mice. The note with it: endpoint: median survival time, higher = longer survival. In a few lines:
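Read-out: survival or tumor size, given as treated/control ratio. Controls received vehicle only; animals bore transplantable tumors.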

[1] abbreviates: dose: 50.0 mg/kg/injection, schedule: Q01DX009 (ip), vehicle: saline.
Where [2] appears, read: dose: 12.5 mg/kg/injection, schedule: Q01DX009 (ip), vehicle: saline with Tween-80.
[3] abbreviates: dose: 25.0 mg/kg/injection, schedule: Q01DX009 (ip), vehicle: saline with Tween-80.
[4] abbreviates: dose: 50.0 mg/kg/injection, schedule: Q01DX009 (ip), vehicle: saline with Tween-80.
Where [5] appears, read: dose: 100.0 mg/kg/injection, schedule: Q01DX009 (ip), vehicle: Klucel (hydroxypropylcellulose) (HPC).
The mark [6] stands for this setting: dose: 200.0 mg/kg/injection, schedule: Q01DX009 (ip), vehicle: Klucel (hydroxypropylcellulose) (HPC).
Where [7] appears, read: dose: 25.0 mg/kg/injection, schedule: Q01DX009 (ip), vehicle: Klucel (hydroxypropylcellulose) (HPC).
Where [8] appears, read: dose: 50.0 mg/kg/injection, schedule: Q01DX009 (ip), vehicle: Klucel (hydroxypropylcellulose) (HPC).
[9] abbreviates: dose: 6.25 mg/kg/injection, schedule: Q01DX009 (ip), vehicle: Klucel (hydroxypropylcellulose) (HPC).
Setting [10] is: dose: 12.5 mg/kg/injection, schedule: Q01DX009 (ip), vehicle: Klucel (hydroxypropylcellulose) (HPC).

This is an account of results in PubChem BioAssay AID192 (DTP/NCI, 2004).

“And” between values parts separate entries of the source, which are not always exact repeats. Equal values may be shown once. Inconclusive results and toxic doses are left out.

As for `COC(=O)c1ccc[n+](CC(=O)c2ccccc2)c1`, the T/C is 95 % of control under setting [1]; 93 % of control (dose: 100.0 mg/kg/injection, schedule: Q01DX009 (ip), vehicle: saline); 99 % of control (dose: 200.0 mg/kg/injection, schedule: Q01DX009 (ip), vehicle: saline).

`Cc1cc2nc(CBr)c(CBr)nc2cc1C`: the T/C was 86 % of control (dose: 0.1 mg/kg/injection, schedule: Q01DX009 (ip), vehicle: saline with Tween-80); 86 % of control (dose: 0.2 mg/kg/injection, schedule: Q01DX009 (ip), vehicle: saline with Tween-80); 92 % of control (dose: 0.4 mg/kg/injection, schedule: Q01DX009 (ip), vehicle: saline with Tween-80); 107 % of control (dose: 0.75 mg/kg/injection, schedule: Q01DX009 (ip), vehicle: saline with Tween-80); 94 % of control (dose: 0.8 mg/kg/injection, schedule: Q01DX009 (ip), vehicle: saline with Tween-80); 97 % of control (dose: 1.5 mg/kg/injection, schedule: Q01DX009 (ip), vehicle: saline with Tween-80). The T/C by setting is: (dose: 3.0 mg/kg/injection, schedule: Q01DX009 (ip), vehicle: saline with Tween-80) 97 % of control; (dose: 6.0 mg/kg/injection, schedule: Q01DX009 (ip), vehicle: saline with Tween-80) 89 % of control.

With `O=C(O)C(c1ccccc1)C1CCCC1` (stereo not drawn), the T/C reads like this: under setting [2], 109 % of control; under setting [3], 111 % of control; under setting [4], 94 % of control and 106 % of control.

Consider `COc1ccc(CCNC(=S)NCCc2ccc(OC)c(OC)c2)cc1OC`, for which the T/C is 86 % of control under setting [5]; 92 % of control under setting [6]; 115 % of control (dose: 400.0 mg/kg/injection, schedule: Q01DX009 (ip), vehicle: Klucel (hydroxypropylcellulose) (HPC)).

For `Cc1nonc1-c1ccc2c(c1)OCO2`, the T/C by setting is: under setting [7], 98 % of control; under setting [8], 93 % of control; under setting [5], 91 % of control; under setting [6], 99 % of control.

For the compound `Cc1cc(N)c2cc(NC(=O)CCCCCCCCC(=O)Nc3ccc4nc(C)cc(N)c4c3)ccc2n1`, the T/C by setting is: (dose: 3.12 mg/kg/injection, schedule: Q01DX009 (ip), vehicle: Klucel (hydroxypropylcellulose) (HPC)) 89 % of control; under setting [9], 87 % of control and 91 % of control; under setting [10], 100 % of control; under setting [7], 95 % of control and 107 % of control; under setting [8], 95 % of control and 99 % of control.

As for `CCc1ccc(NC(=O)Nc2ccc(Cl)cc2)cc1`, the T/C is 89 % of control (dose: 100.0 mg/kg/injection, schedule: Q01DX009 (ip), vehicle: gum acacia); 98 % of control (dose: 200.0 mg/kg/injection, schedule: Q01DX009 (ip), vehicle: gum acacia); 93 % of control (dose: 400.0 mg/kg/injection, schedule: Q01DX009 (ip), vehicle: gum acacia).

Consider `Nc1ncn(C2CC(O)C(CO)O2)c(=O)n1` (stereo not drawn), for which the T/C runs as follows: (dose: 0.01 mg/kg/injection, schedule: Q01DX009 (ip), vehicle: Klucel (hydroxypropylcellulose) (HPC)) 98 % of control; (dose: 0.03 mg/kg/injection, schedule: Q01DX009 (ip), vehicle: Klucel (hydroxypropylcellulose) (HPC)) 109 % of control; (dose: 0.05 mg/kg/injection, schedule: Q01DX009 (ip), vehicle: Klucel (hydroxypropylcellulose) (HPC)) 99 % of control; (dose: 0.06 mg/kg/injection, schedule: Q01DX009 (ip), vehicle: Klucel (hydroxypropylcellulose) (HPC)) 98 % of control; (dose: 0.1 mg/kg/injection, schedule: Q01DX009 (ip), vehicle: Klucel (hydroxypropylcellulose) (HPC)) 100 % of control; (dose: 0.12 mg/kg/injection, schedule: Q01DX009 (ip), vehicle: Klucel (hydroxypropylcellulose) (HPC)) 105 % of control. Also, the T/C runs as follows: (dose: 0.2 mg/kg/injection, schedule: Q01DX009 (ip), vehicle: Klucel (hydroxypropylcellulose) (HPC)) 100 % of control; (dose: 0.25 mg/kg/injection, schedule: Q01DX009 (ip), vehicle: Klucel (hydroxypropylcellulose) (HPC)) 102 % of control; (dose: 0.4 mg/kg/injection, schedule: Q01DX009 (ip), vehicle: Klucel (hydroxypropylcellulose) (HPC)) 105 % of control; (dose: 0.5 mg/kg/injection, schedule: Q01DX009 (ip), vehicle: Klucel (hydroxypropylcellulose) (HPC)) 104 % of control; (dose: 0.8 mg/kg/injection, schedule: Q01DX009 (ip), vehicle: Klucel (hydroxypropylcellulose) (HPC)) 122 % of control.

Take `CCC(C)C(CO)c1ccccc1` (stereo not drawn): the T/C runs as follows: under setting [3], 102 % of control; under setting [4], 99 % of control.

`C=CCNc1nc2c(s1)CCc1cc(OC)c(OC)cc1-2`: the T/C by setting is: under setting [2], 104 % of control; under setting [3], 106 % of control; under setting [4], 115 % of control; (dose: 100.0 mg/kg/injection, schedule: Q01DX009 (ip), vehicle: saline with Tween-80) 104 % of control; (dose: 200.0 mg/kg/injection, schedule: Q01DX009 (ip), vehicle: saline with Tween-80) 104 % of control.

With `C=COC(=O)CCCCCCCCCCCCCCCCC`, the T/C is, setting by setting: (dose: 20.0 mg/kg/injection, schedule: Q01DX009 (ip), vehicle: Klucel (hydroxypropylcellulose) (HPC)) 94 % of control; (dose: 40.0 mg/kg/injection, schedule: Q01DX009 (ip), vehicle: Klucel (hydroxypropylcellulose) (HPC)) 94 % of control; (dose: 80.0 mg/kg/injection, schedule: Q01DX009 (ip), vehicle: Klucel (hydroxypropylcellulose) (HPC)) 92 % of control.

`CCOC(=O)C1C(=O)C(CN(CCCl)CCCl)C(=O)C(C(=O)OCC)C1c1ccc(O)cc1` (stereo not drawn): the T/C under setting [10] was 158 % of control.

Consider `O=C(O)C1=CCC=CC1`, for which the T/C is 100 % of control (dose: 100.0 mg/kg/injection, schedule: Q04DX003 (ip), vehicle: saline with Tween-80); 103 % of control (dose: 200.0 mg/kg/injection, schedule: Q04DX003 (ip), vehicle: saline with Tween-80); 96 % of control (dose: 400.0 mg/kg/injection, schedule: Q04DX003 (ip), vehicle: saline with Tween-80).

In the case of `CNc1nc(NC)nc(NC)n1`, the T/C was 106 % of control under setting [10], 118 % of control under setting [7], 100 % of control under setting [8] and 109 % of control under setting [5].

For the compound `OC(CCN1CCCC1)(c1ccccc1)C1CCCCC1` (stereo not drawn), the T/C under setting [9] is 101 % of control, the T/C under setting [7] was 98 % of control, the T/C under setting [8] was 93 % of control and the T/C under setting [5] was 87 % of control.

Take `Cc1c(CCl)c(C)c(CCl)c(C)c1CCl`: the T/C reads like this: (dose: 3.0 mg/kg/injection, schedule: Q01DX009 (ip), vehicle: Klucel (hydroxypropylcellulose) (HPC)) 102 % of control; (dose: 6.0 mg/kg/injection, schedule: Q01DX009 (ip), vehicle: Klucel (hydroxypropylcellulose) (HPC)) 100 % of control; (dose: 12.0 mg/kg/injection, schedule: Q01DX009 (ip), vehicle: Klucel (hydroxypropylcellulose) (HPC)) 100 % of control.

Consider `CCN(CC)CCCC(C)Nc1c2ccc(C)cc2nc2ccc(OC)cc12` (stereo not drawn), for which the T/C runs as follows: (dose: 6.25 mg/kg/injection, schedule: Q01DX009 (ip), vehicle: saline) 89 % of control; (dose: 12.5 mg/kg/injection, schedule: Q01DX009 (ip), vehicle: saline) 99 % of control and 114 % of control; (dose: 25.0 mg/kg/injection, schedule: Q01DX009 (ip), vehicle: saline) 124 % of control; under setting [1], 122 % of control and 123 % of control.

Consider `CC1=CC2=C(C=O)C(=O)[C@](C)(O)[C@@H](O)C2=CO1`, for which the T/C is, setting by setting: (dose: 6.25 mg/kg/injection, schedule: Q01DX009 (ip), vehicle: saline with Tween-80) 119 % of control; under setting [2], 108 % of control; under setting [3], 122 % of control.

`O=C(CBr)CC(O)(C(F)(F)F)C(F)(F)F`: the T/C was 100 % of control (dose: 0.75 mg/kg/injection, schedule: Q01DX009 (ip), vehicle: saline); 97 % of control (dose: 0.75 mg/kg/injection, schedule: Q04DX003 (ip), vehicle: saline); 105 % of control (dose: 1.5 mg/kg/injection, schedule: Q01DX009 (ip), vehicle: saline); 100 % of control (dose: 1.5 mg/kg/injection, schedule: Q04DX003 (ip), vehicle: saline); 94 % of control (dose: 3.0 mg/kg/injection, schedule: Q01DX009 (ip), vehicle: saline); 100 % of control and 105 % of control (dose: 3.0 mg/kg/injection, schedule: Q04DX003 (ip), vehicle: saline).
